Assay results: patent publication US11091488B2 (MISSION THERAPEUTICS LIMITED, priority 2015, dated 2021)

Molecular target: USP30 (Homo sapiens (Human), UniProt Q70CQ3)
Assay: USP30 biochemical IC50 assay
Conditions: read-out: IC50 range; fluorescence polarisation, TAMRA labelled peptide linked to ubiquitin; 30 min pre-incubation, read after 2 hr
Experimental: USP30 Biochemical IC50 Assay
Dilution plates were prepared at 21 times the final concentration (2100 μM for a final concentration of 100 μM) in 50% DMSO in a 96-well polypropylene V-bottom plate (Greiner #651201). A typical 8-point dilution series to be 100, 30, 10, 3, 1, 0.3, 0.1, 0.03 μM final. Reactions were performed in duplicate in black 384 well plates (small volume, Greiner 784076) in a final reaction volume of 21 μl. Either 1 μl of 50% DMSO or diluted compound was added to the plate. USP30 was diluted in reaction buffer (40 mM Tris, pH 7.5, 0.005% Tween 20, 0.5 mg/ml BSA, 5 mM—beta-mercaptoethanol) to the equivalent of 0.05 μl/well and 10 μl of diluted USP30 was added to the compound. Enzyme and compound were incubated for 30 min at room temp. Reactions were initiated by the addition of 50 nM of TAMRA labelled peptide linked to ubiquitin via an iso-peptide bond as fluorescence polarisation substrate. Reactions were read immediately after addition of substrate and following a 2 hr incubation at room temperature. Readings were performed on a Pherastar Plus (BMG Labtech). λ Excitation 540 nm; λ Emission 590 nm.

Chain of USP30 (Q70CQ3 57-517): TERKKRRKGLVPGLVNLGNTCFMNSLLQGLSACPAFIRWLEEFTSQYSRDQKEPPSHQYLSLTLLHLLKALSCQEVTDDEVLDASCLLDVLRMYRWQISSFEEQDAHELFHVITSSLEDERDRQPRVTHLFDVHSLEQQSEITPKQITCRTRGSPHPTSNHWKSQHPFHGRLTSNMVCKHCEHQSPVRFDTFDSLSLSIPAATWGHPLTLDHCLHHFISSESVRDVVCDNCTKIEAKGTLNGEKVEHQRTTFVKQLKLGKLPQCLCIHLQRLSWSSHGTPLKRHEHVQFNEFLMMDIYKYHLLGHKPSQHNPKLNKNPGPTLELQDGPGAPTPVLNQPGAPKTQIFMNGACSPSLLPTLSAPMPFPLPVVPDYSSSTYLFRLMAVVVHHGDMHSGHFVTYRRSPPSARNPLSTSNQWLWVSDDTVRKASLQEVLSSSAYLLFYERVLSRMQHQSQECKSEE

N#CN1CC[C@H](N2CCN(c3cccc(-c4ccno4)c3)S2(=O)=O)C1 [Example 1, (S)-3-(5-(3-(isoxazol-5-yl)phenyl)-1,1-dioxido-1,2,5-thiadiazolidin-2-yl)pyrrolidine-1-carbonitrile]
IC50: 100 to 1000 nM

CN1C(=O)COc2cc(N3CCN([C@@H]4CCN(C#N)C4)S3(=O)=O)ccc21 [Example 2, (R)-3-(5-(4-methyl-3-oxo-3,4-dihydro-2H-benzo[b][1,4]oxazin-7-yl)-1,1-dioxido-1,2,5-thiadiazolidin-2-yl)pyrrolidine-1-carbonitrile]
IC50: < 100 nM

N#CN1CC[C@@H](N2CCN(c3ccc4c(c3)OCC(=O)N4)S2(=O)=O)C1 [Example 3, (R)-3-(1,1-dioxido-5-(3-oxo-3,4-dihydro-2H-benzo[b][1,4]oxazin-7-yl)-1,2,5-thiadiazolidin-2-yl)pyrrolidine-1-carbonitrile]
IC50: 100 to 1000 nM

N#CN1CC[C@@H](N2CCN(c3ccc4c(c3)NC(=O)CO4)S2(=O)=O)C1 [Example 5, (R)-3-(1,1-dioxido-5-(3-oxo-3,4-dihydro-2H-benzo[b][1,4]oxazin-6-yl)-1,2,5-thiadiazolidin-2-yl)pyrrolidine-1-carbonitrile]
IC50: < 100 nM

N#CN1CC[C@@H](N2CCN(c3ccc4c(c3)N(CCO)C(=O)CO4)S2(=O)=O)C1 [Example 6, (R)-3-(5-(4-(2-hydroxyethyl)-3-oxo-3,4-dihydro-2H-benzo[b][1,4]oxazin-6-yl)-1,1-dioxido-1,2,5-thiadiazolidin-2-yl)pyrrolidine-1-carbonitrile]
IC50: 100 to 1000 nM

COc1ccc(N2CCN([C@@H]3CCN(C#N)C3)S2(=O)=O)cc1N1CCOCC1 [Example 8, (R)-3-(5-(4-methoxy-3-morpholinophenyl)-1,1-dioxido-1,2,5-thiadiazolidin-2-yl)pyrrolidine-1-carbonitrile]
IC50: 100 to 1000 nM

N#CN1CC[C@@H](N2CCN(C3CCN(c4ccccn4)C3)S2(=O)=O)C1 (stereo partly drawn) [Example 9, (3R)-3-(1,1-dioxido-5-(1-(pyridin-2-yl)pyrrolidin-3-yl)-1,2,5-thiadiazolidin-2-yl)pyrrolidine-1-carbonitrile]
IC50: 100 to 1000 nM

COc1ccccc1-c1cccc(N2CCN([C@@H]3CCN(C#N)C3)S2(=O)=O)c1 [Example 10, (R)-3-(5-(2′-methoxy-[1,1′-biphenyl]-3-yl)-1,1-dioxido-1,2,5-thiadiazolidin-2-yl)pyrrolidine-1-carbonitrile]
IC50: < 100 nM

N#CN1CC[C@@H](N2CCN(c3ccc(-c4ccccc4)cc3)S2(=O)=O)C1 [Example 11, (R)-3-(5-([1,1′-biphenyl]-4-yl)-1,1-dioxido-1,2,5-thiadiazolidin-2-yl)pyrrolidine-1-carbonitrile]
IC50: < 100 nM

N#CN1CC[C@@H](N2CCCN(c3ccc(-c4ccccc4)cc3)S2(=O)=O)C1 [Example 12, (R)-3-(6-([1,1′-biphenyl]-4-yl)-1,1-dioxido-1,2,6-thiadiazinan-2-yl)pyrrolidine-1-carbonitrile]
IC50: 100 to 1000 nM

N#CN1CC[C@@H](N2CCN(c3cccc(-c4ccccc4)c3)S2(=O)=O)C1 [Example 13, (R)-3-(5-([1,1′-biphenyl]-3-yl)-1,1-dioxido-1,2,5-thiadiazolidin-2-yl)pyrrolidine-1-carbonitrile]
IC50: < 100 nM

N#CN1CC[C@@H](N2CCCN(c3cccc(-c4ccccc4)c3)S2(=O)=O)C1 [Example 14, (R)-3-(6-([1,1′-biphenyl]-3-yl)-1,1-dioxido-1,2,6-thiadiazinan-2-yl)pyrrolidine-1-carbonitrile]
IC50: 100 to 1000 nM

COc1ccc(-c2ccccc2)cc1N1CCN([C@@H]2CCN(C#N)C2)S1(=O)=O [Example 15, (R)-3-(5-(4-methoxy-[1,1′-biphenyl]-3-yl)-1,1-dioxido-1,2,5-thiadiazolidin-2-yl)pyrrolidine-1-corbonitrile]
IC50: < 100 nM

COc1cccc(-c2cccc(N3CCN([C@@H]4CCN(C#N)C4)S3(=O)=O)c2)c1 [Example 16, (R)-3-(5-(3′-methoxy-[1,1′-biphenyl]-3-yl)-1,1-dioxido-1,2,5-thiadiazolidin-2-yl)pyrrolidine-1-carbonitrile]
IC50: < 100 nM

COc1ccccc1-c1ccc(N2CCN([C@@H]3CCN(C#N)C3)S2(=O)=O)cc1 [Example 17, (R)-3-(5-(2′-methoxy-[1,1′-biphenyl]-4-yl)-1,1-dioxido-1,2,5-thiadiazolidin-2-yl)pyrrolidine-l-carbonitrile]
IC50: < 100 nM

N#CN1CC[C@@H](N2CCN(c3ccc(-c4ccncc4)cc3)S2(=O)=O)C1 [Example 18, (R)-3-(1,1-dioxido-5-(4-(pyridin-4-yl)phenyl)-1,2,5-thiadiazolidin-2-yl)pyrrolidine-1-carbonitrile]
IC50: < 100 nM

N#CN1CC[C@@H](N2CCN(c3cccc(-c4ccncc4)c3)S2(=O)=O)C1 [Example 19, (R)-3-(1,1-dioxido-5-(3-(pyridin-4-yl)phenyl)-1,2,5-thiadiazolidin-2-yl)pyrrolidine-1-carbonitrile]
IC50: < 100 nM

Cn1cc(-c2cccc(N3CCN([C@@H]4CCN(C#N)C4)S3(=O)=O)c2)cn1 [Example 20, (R)-3-(5-(3-(1-methyl-1H-pyrazol-4-yl)phenyl)-1,1-dioxido-1,2,5-thiadiazolidin-2-yl)pyrrolidine-1-corbonitrile]
IC50: < 100 nM

Cn1cc(-c2cccc(N3CCCN([C@@H]4CCN(C#N)C4)S3(=O)=O)c2)cn1 [Example 21, (R)-3-(6-(3-(1-methyl-1H-pyrazol-4-yl)phenyl)-1,1-dioxido-1,2,6-thiadiazinan-2-yl)pyrrolidine-1-carbonitrile]
IC50: 100 to 1000 nM

N#CN1CC[C@@H](N2CCN(c3ccc(N4CCOCC4)cc3)S2(=O)=O)C1 [Example 22, (R)-3-(5-(4-morpholinophenyl)-1,1-dioxido-1,2,5-thiadiazolidin-2-yl)pyrrolidine-1-carbonitrile]
IC50: 100 to 1000 nM

N#CN1CC[C@@H](N2CCN(c3cccc(N4CCOCC4)c3)S2(=O)=O)C1 [Example 24, (R)-3-(5-(3-morpholinophenyl)-1,1-dioxido-1,2,5-thiadiazolidin-2-yl)pyrrolidine-1-carbonitrile]
IC50: < 100 nM

N#CN1CC[C@@H](N2CCCN(c3cccc(N4CCOCC4)c3)S2(=O)=O)C1 [Example 25, (R)-3-(6-(3-morpholinophenyl)-1,1-dioxido-1,2,6-thiadiazinan-2-yl)pyrrolidine-1-carbonitrile]
IC50: 1000 to 10000 nM

N#CN1CC[C@@H](N2CCN(c3cc(-c4ccccc4)no3)S2(=O)=O)C1 [Example 26, (R)-3-(1,1-dioxido-5-(3-phenylisoxazol-5-yl)-1,2,5-thiadiazolidin-2-yl)pyrrolidine-1-carbonitrile]
IC50: < 100 nM

N#CN1CC[C@@H](N2CCCN(c3cc(-c4ccccc4)no3)S2(=O)=O)C1 [Example 27, (R)-3-(1,1-dioxido-6-(3-phenylisoxazol-5-yl)-1,2,6-thiadiazinan-2-yl)pyrrolidine-1-carbonitrile]
IC50: 100 to 1000 nM

N#CN1CC[C@@H](N2CCN(c3cc(-c4ccccc4)n[nH]3)S2(=O)=O)C1 [Example 28, (R)-3-(1,1-dioxido-5-(3-phenyl-1H-pyrazol-5-yl)-1,2,5-thiadiazolidin-2-yl)pyrrolidine-1-carbonitrile]
IC50: < 100 nM

N#CN1CC[C@@H](N2CCCN(c3cc(-c4ccccc4)n[nH]3)S2(=O)=O)C1 [Example 29, (R)-3-(1,1-dioxido-6-(3-phenyl-1H-pyrazol-5-yl)-l,2,6-thiadiazinan-2-yl)pyrrolidine-1-carbonitrile]
IC50: 100 to 1000 nM

N#CN1CC[C@@H](NS(=O)(=O)N2CCCn3nc(-c4ccccc4)cc32)C1 [Example 30, (R)—N-(1-cyanopyrrolidin-3-yl)-2-phenyl-6,7-dihydropyrazolo[1,5-a]pyrimidine-4(5H)-sulfonamide]
IC50: 100 to 1000 nM

N#CN1CC[C@H](N2CCN(c3ccccc3)S2(=O)=O)C1 [Example 31, (S)-3-(1,1-dioxido-5-phenyl-1,2,5-thiadiazolidin-2-yl)pyrrolidine-1-carbonitrile]
IC50: 1000 to 10000 nM

N#CN1CC[C@H](N2CCN(c3ccc(-c4ccncc4)cc3)S2(=O)=O)C1 [Example 32, (S)-3-(1,1-dioxido-5-(4-(pyridin-4-yl)phenyl)-1,2,5-thiadiazolidin-2-yl)pyrrolidine-1-carbonitrile]
IC50: < 100 nM

N#CN1CC[C@H](N2CCN(c3cccc(-c4ccncc4)c3)S2(=O)=O)C1 [Example 33, (S)-3-(1,1-dioxido-5-(3-(pyridin-4-yl)phenyl)-1,2,5-thiadiazolidin-2-yl)pyrrolidine-l-carbonitrile]
IC50: < 100 nM

N#CN1CC[C@H](N2CCN(c3ccc(-c4ccccc4)cc3)S2(=O)=O)C1 [Example 34]
IC50: < 100 nM

N#CN1CC[C@H](N2CCN(c3cccc(-c4ccccc4)c3)S2(=O)=O)C1 [Example 35, (S)-3-(5-([1,1′-biphenyl]-3-yl)-l,1-dioxido-1,2,5-thiadiozolidin-2-yl)pyrrolidine-1-carbonitrile]
IC50: < 100 nM

N#CN1CC[C@H](N2CCN(c3cccc(-c4ccccc4)n3)S2(=O)=O)C1 [Example 36, (S)-3-(1,1-dioxido-5-(6-phenylpyridin-2-yl)-1,2,5-thiadiazolidin-2-yl)pyrrolidine-1-carbonitrile]
IC50: < 100 nM

N#CN1CCC(N2CCN(c3ccccc3)S2(=O)=O)C1 (stereo not shown) [Example 37, 3-(1,1-dioxido-5-phenyl-1,2,5-thiadiazolidin-2-yl)pyrrolidine-1-carbonitrile]
IC50: 100 to 1000 nM

N#CN1CCC(N2CCCN(c3ccccc3)S2(=O)=O)C1 (stereo not shown) [Example 38, 3-(1,1-dioxido-6-phenyl-1,2,6-thiadiazinan-2-yl)pyrrolidine-1-carbonitrile]
IC50: 100 to 1000 nM

C[C@H]1CN(C#N)C[C@@H]1N1CCN(c2ccc(-c3ccccc3)cc2)S1(=O)=O [Example 39, (3R,4S)-3-(5-([1,1′-biphenyl]-4-yl)-1,1-dioxido-1,2,5-thiadiazolidin-2-yl)-4-methylpyrrolidine-1-carbonitrile]
IC50: < 100 nM

C[C@H]1CN(C#N)C[C@@H]1N1CCN(c2cccc(N3CCN(C)CC3)c2)S1(=O)=O [Example 40, (3S,4R)-3-methyl-4-(5-(3-(4-methylpiperazin-1-yl)phenyl)-1,1-dioxido-1,2,5-thiadiazolidin-2-yl)pyrrolidine-1-carbonitrile]
IC50: 100 to 1000 nM
